Where a SMILES comes first, the peptide text is derived from it. The star is where a group is joined. Cbz = O=C(OCc1ccccc1)*
Legend:
[1] = biological target: T1, CypA (Homo sapiens, UniProt P62937); conditions: cited from earlier work
[2] = biological target: T1, CypA; assay: Degradation of CypA in HDFn fibroblasts (western blot); format: cell-based; parameters: endogenous in cells; host or cells: primary PBMCs from healthy donors; conditions: 1 μM epoxomicin, 3 μM MG-132, 1 μM CsA, 10 μM VHL ligand
Description: (§1) HeLa cells and primary human dermal fibroblasts isolated from neonatal foreskin (HDFn) were adherent cells and were cultured in commercially available, ready-to-use DMEM ([…], Gibco, Waltham, MA, USA) supplemented with 10% (v/v) FBS (Fetal Bovine Serum, Sigma-Aldrich) and antibiotics (Streptomycin/Penicillin, 1:1000 dilution) in polystyrene culture flasks. Growth conditions for all cell lines were maintained in a humidified chamber at 37 °C and 5% CO2. For subculturing or prior counting, the cells were treated with trypsin-EDTA (Life Technologies GmbH, Carlsbad, CA, USA) to detach them from the surface.
(§2) A total of 5 × 10^5 HeLa cells or HDFn was plated in 6-well plates the day before treatment. […] An amount of 200 μL PROTAC dilutions (0.1 μM and 1.0 μM) in DMSO (final concentration 0.1% (v/v)) were added to the culture medium and incubated at 37.0 °C and 5.0% CO2 for the desired time. As a blank, the cells were incubated with 200 μL DMSO under the same conditions. After the appropriate incubation time, the medium was aspirated, and the cells were washed twice with 1× PBS.
(§3) Cells were lysed in ice-cold 1× Laemmli buffer (100 mM DTT) after two washes with 1× PBS. After denaturation (95 °C for 5 min) and shearing of the DNA by sonication, the samples were loaded on Tricine-SDS-PAGE, electrophoresed, and blotted onto a PVDF membrane. After staining with S-Ponceau staining solution and blocking, the membranes were incubated overnight at 4 °C in primary rabbit anti-CypA antibody (Cell Signaling Technology #2175S, Danvers, MA, USA) and for 1 h at room temperature with secondary antibody (IRDye® 800 CW Goat anti-Rabbit IgG Secondary Antibody, LI-COR). All membranes were then reprobed with rabbit anti-beta actin (Cell Signaling Technology #4967) to ensure equal protein loading. The intensities of the bands on western blot films were quantified using the LI-COR Odyssey Imaging System and the software Image Studio Lite (version 3.1). The CypA values were normalized to β-actin, and DMSO was arbitrarily assigned a value of 100% for comparison purposes.

[3] = biological target: T1, CypA; assay: Degradation of endogenous CypA in HeLa cells (western blot); format: cell-based; parameters: The degradation of endogenous CypA in HeLa cells was investigated; endogenous in cells; host or cells: HeLa; conditions: 1 μM epoxomicin, 3 μM MG-132, 1 μM CsA, 10 μM VHL ligand
Description: as §1, §2, §3

T1 sequence (P62937 whole entry): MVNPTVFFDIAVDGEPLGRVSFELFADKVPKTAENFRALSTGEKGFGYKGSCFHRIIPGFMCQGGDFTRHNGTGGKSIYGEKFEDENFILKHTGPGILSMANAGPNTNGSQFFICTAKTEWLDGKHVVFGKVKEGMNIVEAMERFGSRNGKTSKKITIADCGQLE

Compound | CypA inhibitor potency [1] | effect of 1 h pre-treatment with the substance on CypA degradation by P3 or P5 [2] | effect of 1 h pre-treatment with the substance on CypA degradation by P3 or P5 [3]
C/C=C/C[C@@H](C)[C@@H](O)[C@H]1C(=O)N[C@@H](CC)C(=O)N(C)[C@H](C)C(=O)N(CC)[C@@H](C(C)C)C(=O)N[C@@H](C(C)C)C(=O)N(C)[C@@H](CC(C)C)C(=O)N[C@@H](C)C(=O)N[C@H](C)C(=O)N(C)[C@@H](CC(C)C)C(=O)N(C)[C@@H](CC(C)C)C(=O)N(C)[C@@H](C(C)C)C(=O)N1C [Alisporivir] | low nM | – | –
CC[C@H](C)[C@H](NC(=O)[C@H]([C@@H](C)CC)N(C)C(C)=O)C(=O)N[C@H](C(=O)N[C@@H](CC(C)C)C(=O)[C@@]1(C)CO1)[C@@H](C)O [Ep, epoxomicin] | – | suppressed | suppressed
CC(C)C[C@@H](C=O)NC(=O)[C@H](CC(C)C)NC(=O)[C@H](CC(C)C)NC(=O)OCc1ccccc1 [MG-132] (Cbz-Leu-Leu-Leu-aldehyde) | – | suppressed | suppressed
Cc1ncsc1-c1ccc(CNC(=O)[C@@H]2C[C@@H](O)CN2C(=O)[C@@H](N)C(C)(C)C)cc1 [VHL ligand 1] | – | recovery of CypA band | recovery of CypA band

Source: PMC11206246, “Cyclosporin A-Based PROTACs Can Deplete Abundant Cellular Cyclophilin A without Suppressing T Cell Activation” (Molecules, 2024)
